Results on 17 compounds are retold here after patent EP4567031A1, “HPK1 INHIBITOR, PREPARATION METHOD THEREFOR, AND USE THEREOF” (Beijing Earthwise Technology Co., Ltd., priority 2022, dated 2024).

Assay [1] deals with Phospho-SLP-76 (Ser376). Nature of the assay: Phospho-SLP-76 (Ser376) HTRF assay in Jurkat E6-1 cells. The assay is classed as cell-based. The settings on record: Homo sapiens, compound 4 hours, then anti-CD3 antibody 20 minutes, read-out: pSLP76, IC50. The protocol:
A compound was dissolved in DMSO to 10 mM, and then diluted three-fold with DMSO to 10 dosages in a 96-well plate. Then, 3 µL of the diluted compound sample was transferred to a 96-well plate with 97 µL of cell culture medium, and the plate was shaken for 5 minutes. According to the experimental design diagram, 7.5 µL of the diluted compound sample was transferred to a cell plate. Final concentrations of the compound in this assay were 10000.00, 3333.33, 1111.11, 370.37, 123.46, 41.15, 13.72, 4.57, 1.52 and 0.51 nM.
In this assay, the density of Jurkat E6-1 cells was maintained between 3*10^5 to 3*10^6 cells/mL. The cell culture was replaced with fresh culture medium every 2 to 3 days (depending on the cell density).
30 µL of Jurkat E6-1 (300,000 cells) was added to a 96-well plate and incubated in a 37 °C incubator for 1 hour. Then, according to the experimental design diagram, compounds (6×, 7.5 µL) were added to treat the cells for 4 hours, respectively. After 4 hours, purified anti-human anti-CD3 antibodies (6×, 7.5 µL) were added to treat the cells for 20 minutes. After 20 minutes, 15 µL of cell lysis buffer (4×) was added, and the cells were lysed at 25 °C with shaking (250 rpm) for 1 hour. Then, according to the experimental design diagram, 16 µL of cell lysate was transferred to a 384-well plate using a pipette. After the transfer, 4 µL of antibody detection mixture was added. After being placed at room temperature overnight, the plate was read by EnVision multi-function microplate reader to read the FRET signal (the ratio of HTRF 665/615 was calculated from the readings at 665 nm and 615 nm).
The ratio of the signal at 665 nm to the signal at 615 nm was converted to the percentage of inhibition. Inhibition % = (maximum value - sample value) / (maximum value - minimum value)×100. The minimum value refers to the signal value of a well without anti-CD3 antibody stimulation during the treatment of cells, and the maximum value refers to the signal value of a well with anti-CD3 antibody stimulation but without the compound during the treatment of cells. IC50 values were calculated by XLFit (version 5.3.1.3) in excel. Equation: Y = Bottom + (Top-Bottom) / (1 + (IC50/X) ^ HillSlope). Table 4. Results of cellular activity of the compounds

Assay [2] relates to human Pan T cells. Nature of the assay: Human Pan T cell IL-2 ELISA. The assay is classed as cell-based. The settings on record: Homo sapiens, T-cell, 48 h, Anti-CD3 and Anti-CD28, supernatant IL-2 ELISA, read-out: IL-2 release, EC50. Put shortly:
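Human Pan T cells (1×10^6 cells/ml) stimulated with plate-bound anti-CD3 plus anti-CD28 and treated 48 h with compound at 9 final concentrations, 39.063–10000 nM. Supernatant IL-2 by ELISA, expressed as fold over DMSO wells; EC50 from four-parameter logistic fit.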

Assay [3] has as its target HPK1 (Homo sapiens, UniProt Q92918). Nature of the assay: HPK1 HTRF kinase assay. The assay is classed as biochemical. The settings on record: 1000 µM ATP; 50 nM HPK1; STK1 substrate; read-out: HPK1, IC50. As for the experimental part: The reaction was initiated by adding 50 nM HPK1. After 120 minutes of reaction, the assay was terminated by adding 10 µL of Detection Mix.
The ratio of the signal at 665 nm to the signal at 615 nm was converted to the percentage of inhibition. Inhibition % = (maximum value - sample value) / (maximum value - minimum value)×100. The minimum value refers to the value measured in a well without enzyme but with DMSO and substrate, and the maximum value refers to the value measured in a well with DMSO, enzyme and substrate. IC50 values were calculated by XLFit (version 5.3.1.3) in Excel. Equation: Y = Bottom + (Top - Bottom) / (1 + (IC50/X) ^ HillSlope).

Chain of HPK1 (Q92918 whole entry, species assumed): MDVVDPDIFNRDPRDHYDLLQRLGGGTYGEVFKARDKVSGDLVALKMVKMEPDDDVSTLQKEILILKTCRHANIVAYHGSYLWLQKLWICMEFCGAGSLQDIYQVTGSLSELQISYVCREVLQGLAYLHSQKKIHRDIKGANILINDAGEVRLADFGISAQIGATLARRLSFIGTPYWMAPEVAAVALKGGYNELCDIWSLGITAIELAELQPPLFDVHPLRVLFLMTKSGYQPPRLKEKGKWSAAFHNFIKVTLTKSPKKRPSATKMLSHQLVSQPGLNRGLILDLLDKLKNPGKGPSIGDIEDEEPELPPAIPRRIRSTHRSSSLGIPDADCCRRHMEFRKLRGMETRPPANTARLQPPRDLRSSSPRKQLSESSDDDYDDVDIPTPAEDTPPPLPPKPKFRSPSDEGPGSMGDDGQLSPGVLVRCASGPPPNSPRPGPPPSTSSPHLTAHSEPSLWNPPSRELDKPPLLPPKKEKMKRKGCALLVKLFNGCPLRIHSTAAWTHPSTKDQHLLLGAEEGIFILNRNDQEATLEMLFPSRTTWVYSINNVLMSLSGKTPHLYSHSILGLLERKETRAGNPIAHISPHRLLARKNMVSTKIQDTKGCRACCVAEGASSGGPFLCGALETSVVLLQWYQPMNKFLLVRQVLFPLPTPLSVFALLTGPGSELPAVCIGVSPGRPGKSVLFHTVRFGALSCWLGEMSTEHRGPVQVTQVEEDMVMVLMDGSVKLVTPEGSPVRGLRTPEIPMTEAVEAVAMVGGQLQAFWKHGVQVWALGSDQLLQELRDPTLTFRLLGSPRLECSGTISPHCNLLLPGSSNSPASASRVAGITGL

Regarding `COc1cccc2c(-c3cc4c(c5c(=O)[nH]ccc35)Nc3ccc(N5CCOCC5)cc3C4(C)C)cnn12` [Example 8], in assay [1], the IC50 came to 103 nM. The EC50 in assay [2] worked out at 5.5 nM.

As for `CC1(C)c2cc(N3CCOCC3)ccc2Nc2c1cc(-c1cnn3cccnc13)c1c2C(=O)NC1` [Example 16], the IC50 in assay [3] stood at 2.85 nM; in assay [1], 31.6 nM. In addition, the EC50 in assay [2] was determined as 6.81 nM.

On to `COc1cccc2c(-c3cc4c(c5c3CNC5=O)Nc3ncc(N5CCOCC5)cc3C4(C)C)cnn12` [Example 21], for which the IC50 in assay [1] was 37 nM. In addition, in assay [2], the EC50 was 8.32 nM.

Regarding `CC1(C)c2cc(N3CCOCC3)ccc2Nc2c1cc(-c1cnn3c(C#N)cccc13)c1c2C(=O)NC1` [Example 17], the IC50 is 6.31 nM in assay [3] and 56.9 nM in assay [1]. The EC50 in assay [2] was determined as 3.72 nM.

In the case of `COc1cccn2c(-c3cc4c(c5c3CNC5=O)Nc3ccc(N5CCOCC5)nc3C4(C)C)cnc12` [Example 20], the figures for the IC50 in assay [3] and in assay [1] were 5.76 nM and 83.6 nM, respectively. Moreover, the EC50 in assay [2] was 11.3 nM.

With `CC1(C)c2cc(N3CCOCC3)ccc2Nc2c1cc(-c1cnc3cccnn13)c1c2C(=O)NC1` [Example 12], the IC50 in assay [3] stood at 6.99 nM; in assay [1], 25.9 nM. Besides, the 50% effective concentration (EC50) in assay [2] was 6.67 nM.

In the case of `CC1(C)c2cc(N3CCOCC3)ccc2Nc2c1cc(-c1cnn3cccnc13)c1cc[nH]c(=O)c21` [Example 4], in assay [1], the IC50 stood at 38.1 nM. The 50% effective concentration (EC50) in assay [2] turned out to be 4.61 nM.

Take `Cn1ccn2c(-c3cc4c(c5c3CNC5=O)Nc3ccc(N5CCOCC5)cc3C4(C)C)cnc2c1=O` [Example 41]: the IC50 in assay [1] was 13.5 nM. In addition, in assay [2], the half-maximal effective concentration (EC50) was 6.09 nM.

Consider `Cc1ccn2c(-c3cc4c(c5c3CNC5=O)Nc3ccc(N5CCOC(C(C)(C)O)C5)cc3C4(C)C)cnc2c1F` (stereo not drawn) [Example 9], for which the IC50 in assay [3] was determined as 20.4 nM; in assay [1], 57.8 nM. In addition, the EC50 in assay [2] was 3.09 nM.

As to `COc1cccc2c(-c3nc4c(c5c3CCNC5=O)Nc3ccc(N5CCOCC5)cc3C4(C)C)cnn12` [Example 15], the IC50 in assay [1] was 72.2 nM. Moreover, in assay [2], the concentration for a half-maximal effect (EC50) worked out at 3.95 nM.

Take `Cc1ccn2c(-c3cc4c(c5c3CNC5=O)Nc3ccc(N5CCOCC5)cc3C4(C)C)cnc2c1F` [Example 11]: the results for the IC50 in assay [3] and in assay [1] were 7.38 nM and 73.3 nM, respectively. Also, the EC50 in assay [2] turned out to be 13.8 nM.

As to `COc1cccn2c(-c3cc4c(c5c3CNC5=O)Nc3ccc(N5CCOCC5)cc3C4(C)C)cnc12` [Example 10], the IC50 in assay [3] was 8.39 nM; in assay [1], 42.7 nM.

As for `Cc1ccn2c(-c3cc4c(c5c(=O)[nH]ccc35)Nc3ccc(N5CCOC(C(C)(C)O)C5)cc3C4(C)C)cnc2c1F` (stereo not drawn) [Example 6], the IC50 in assay [1] amounted to 164 nM. Further, the EC50 in assay [2] is 13 nM.

Consider `COc1ccnn2c(-c3cc4c(c5c3CNC5=O)Nc3ccc(N5CCOCC5)cc3C4(C)C)cnc12` [Example 31], for which the figures for the IC50 in assay [3] and in assay [1] were 24.8 nM and 58.8 nM, respectively. For the same compound, in assay [2], the EC50 was determined as 3.7 nM.

For the compound `COc1cccn2c(-c3cc4c(c5c3CCNC5=O)Nc3ccc(N5CCOCC5)cc3C4(C)C)cnc12` [Example 13], the IC50 in assay [1] was determined as 24.4 nM.

Turning to `COc1cccc2c(-c3cc4c(c5c3CNC5=O)Nc3ccc(N5CCOCC5)cc3C4(C)C)cnn12` [Example 18], the half-maximal inhibitory concentration (IC50) in assay [3] turned out to be 11.7 nM; in assay [1] it was 66 nM. Besides, the EC50 in assay [2] came to 11.8 nM.

Regarding `COc1cccn2c(-c3cc4c(c5c3CNC5=O)Nc3cnc(N5CCOCC5)cc3C4(C)C)cnc12` [Example 14], the IC50 was determined as 30.3 nM in assay [3] and 197 nM in assay [1]. Besides, in assay [2], the concentration for a half-maximal effect (EC50) came to 49.1 nM.
